{
  "source": "patent US12157730B2",
  "about": "“Heteroaryl derivative, method for producing same, and pharmaceutical composition comprising same as effective component” (VORONOI INC., priority 2019, dated 2024)",
  "data": [
    {"molecular_target": "T1, Ba/F3 cell EGFR Exon20 ins NPH (Homo sapiens, UniProt P00533, INS773NPH)", "T1 construct": "expressed in transfected cells; host or cells: Ba/F3", "assay": "Ba/F3 cell proliferation suppression, EGFR Exon20 ins NPH", "assay_type": "cell-based", "conditions": "GI50 class; Ba/F3 cell line with NPH inserted at Exon20 of EGFR; 72 hours", "in_short": "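72 h compound exposure, 0.3 nM–50 um (12 points, 3:1 dilution in DMSO); viability by CellTiter-Glo luminescence. Ba/F3 medium: RPMI-1640, 10% FBS, 5 ng/ml IL-3, 1 ug/ml puromycin for transduced cells. GI50 vs control, n=3.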", "values": [
      {"smiles": "C=CC(=O)Nc1cc(Nc2cc(N3OCC[C@@H]3c3cc(F)cc(F)c3)ncn2)c(OC)cc1N1CCC(N2C[C@H](C)N(C3CC3)C[C@@H]2C)CC1", "note": "[Example 113, N-(2-(4-((2S,5S)-4-cyclopropyl-2,5-dimethylpiperazine-1-yl)piperidine-1-yl)-5-((6-((R)-3-(3,5-difluorophenyl)isoxazolidine-2-yl)pyrimidine-4-yl)amino)-4-methoxyphenyl) acrylamide]", "Ba/F3 (NPH) Activity": "A (GI50 < 50 nM)"},
      {"smiles": "C=CC(=O)Nc1cc(Nc2cc(N3OCC[C@@H]3c3cc(F)cc(F)c3)ncn2)c(OC)cc1N1CCC(N2C[C@@H](C)N(C3CC3)C[C@H]2C)CC1", "note": "[Example 114, N-(2-(4-((2R,5R)-4-cyclopropyl-2,5-dimethylpiperazine-1-yl)piperidine-1-yl)-5-((6-((R)-3-(3,5-difluorophenyl)isoxazolidine-2-yl)pyrimidine-4-yl)amino)-4-methoxyphenyl) acrylamide]", "Ba/F3 (NPH) Activity": "A (GI50 < 50 nM)"},
      {"smiles": "C=CC(=O)Nc1cc(Nc2cc(N3OCC[C@@H]3c3cc(F)ccc3F)ncn2)c(OC)cc1N1CCC(N2CC3CC2CN3C)CC1", "note": "(stereo partly drawn) [compound 877, N-(5-((6-((R)-3-(2,5-difluorophenyl)isoxazolidine-2-yl)pyrimidine-4-yl)amino)-4-methoxy-2-(4-(5-methyl-2,5-diazabicyclo [2.2.1]heptane-2-yl)piperidine-1-yl)phenyl)acrylamide]", "Ba/F3 (NPH) Activity": "A (GI50 < 50 nM)"},
      {"smiles": "C=CC(=O)Nc1cc(Nc2cc(N3OCC[C@@H]3c3cccc(C(F)(F)F)c3)ncn2)c(OC)cc1N1CCC(N2CCN(C3CC3)[C@@H](C)C2)CC1", "note": "[compound 941, N-(2-(4-((S)-4-cyclopropyl-3-methylpiperazine-1-yl)piperidine-1-yl)-4-methoxy-5-((6-((R)-3-(3-(trifluoromethyl)phenyl)isoxazolidine-2-yl)pyrimidine-4-yl)amino)phenyl) acrylamide]", "Ba/F3 (NPH) Activity": "A (GI50 < 50 nM)"},
      {"smiles": "C=CC(=O)Nc1cc(Nc2cc(N3OCC[C@@H]3c3ccc(F)cc3F)ncn2)c(OC)cc1N1C[C@@H]2C[C@H]1CN2CC", "note": "[compound 354, N-(5-((6-((R)-3-(2,4-difluorophenyl)isoxazolidine-2-yl)pyrimidine-4-yl)amino)-2-((1S,4S)-5-ethyl-2,5-diazabicyclo[2.2.1]heptane-2-yl)-4-methoxyphenyl) acrylamide]", "Ba/F3 (NPH) Activity": "A (GI50 < 50 nM)"},
      {"smiles": "C=CC(=O)Nc1cc(Nc2cc(N3OCC[C@@H]3c3cccs3)ncn2)c(OC)cc1N(C)CCN(C)C", "note": "[compound 928, N-(2-((2-(dimethylamino)ethyl) (methyl)amino)-4-methoxy-5-((6-((R)-3-(thiophene-2-yl)isoxazolidine-2-yl)pyrimidine-4-yl)amino)phenyl)acrylamide]", "Ba/F3 (NPH) Activity": "A (GI50 < 50 nM)"},
      {"smiles": "C=CC(=O)Nc1cc(Nc2cc(N3OCC[C@@H]3c3cccc(C#N)c3)ncn2)c(OC)cc1N1CCC(N2CCN(C(C)=O)CC2)CC1", "note": "[compound 434, N-(2-(4-(4-acetylpiperazine-1-yl)piperidine-1-yl)-5-((6-((R)-3-(3-cyanophenyl)isoxazolidine-2-yl)pyrimidine-4-yl)amino)-4-methoxyphenyl) acrylamide]", "Ba/F3 (NPH) Activity": "A (GI50 < 50 nM)"},
      {"smiles": "C=CC(=O)Nc1cc(Nc2cc(N3OCC[C@@H]3c3ccc(F)c(Cl)c3F)ncn2)c(OC)cc1N1CCN(C)CC1", "note": "[compound 604, N-(5-((6-((R)-3-(3-chloro-2,4-difluorophenyl)isoxazolidine-2-yl)pyrimidine-4-yl)amino)-4-methoxy-2-(4-methylpiperazine-1-yl)phenyl)acrylamide]", "Ba/F3 (NPH) Activity": "A (GI50 < 50 nM)"},
      {"smiles": "C=CC(=O)Nc1cc(Nc2cc(N3OCC[C@@H]3c3cccc(Cl)c3Cl)ncn2)c(OC)cc1N1CCOCC1", "note": "[compound 517, N-(5-((6-((R)-3-(2,3-dichlorophenyl)isoxazolidine-2-yl)pyrimidine-4-yl)amino)-4-methoxy-2-morpholinophenyl) acrylamide]", "Ba/F3 (NPH) Activity": "A (GI50 < 50 nM)"},
      {"smiles": "C=CC(=O)Nc1cc(Nc2cc(N3OCC[C@@H]3c3cc(F)cc(F)c3)ncn2)c(OC)cc1N1C[C@H]2CCN(C)[C@H]2C1", "note": "[compound 890, N-(5-((6-((R)-3-(3,5-difluorophenyl)isoxazolidine-2-yl)pyrimidine-4-yl)amino)-4-methoxy-2-((3aR,6aR)-1-methylhexahydropyrrolo [3,4-b]pyrrole-5(1H)-yl)phenyl) acrylamide]", "Ba/F3 (NPH) Activity": "A (GI50 < 50 nM)"},
      {"smiles": "C=CC(=O)Nc1cc(Nc2cc(N3OCC[C@@H]3c3ccc(Cl)cc3F)ncn2)c(OC)cc1N(C)CCN(C)C", "note": "[compound 371, N-(5-((6-((R)-3-(4-chloro-2-fluorophenyl)isoxazolidine-2-yl)pyrimidine-4-yl)amino)-2-((2-(dimethylamino)ethyl)(methyl)amino)-4-methoxyphenyl) acrylamide]", "Ba/F3 (NPH) Activity": "A (GI50 < 50 nM)"},
      {"smiles": "C=CC(=O)Nc1cc(Nc2cc(N3OCC[C@@H]3c3cccc4ccccc34)ncn2)c(OC)cc1N1CC[C@@H](N(C)C)C1", "note": "[compound 443, N-(2-((R)-3-(dimethylamino)pyrolidine-1-yl)-4-methoxy-5-((6-((R)-3-(naphthalene-1-yl)isoxazolidine-2-yl)pyrimidine-4-yl)amino)phenyl) acrylamide]", "Ba/F3 (NPH) Activity": "A (GI50 < 50 nM)"},
      {"smiles": "C=CC(=O)Nc1cc(Nc2cc(N3OCC[C@@H]3c3cccc(F)c3)ncn2)c(OC)cc1N1CCC(N2C[C@@H]3C[C@H]2CN3CC)CC1", "note": "[compound 835, N-(2-(4-((1S,4S)-5-ethyl-2,5-diazabicyclo[2.2.1]heptane-2-yl)piperidine-1-yl)-5-((6-((R)-3-(3-fluorophenyl)isoxazolidine-2-yl)pyrimidine-4-yl)amino)-4-methoxyphenyl) acrylamide]", "Ba/F3 (NPH) Activity": "A (GI50 < 50 nM)"},
      {"smiles": "C=CC(=O)Nc1cc(Nc2cc(N3OCC[C@@H]3c3cc(F)cc(F)c3)ncn2)c(OC)cc1N1CCC(N2C[C@@H]3C[C@H]2CN3C)CC1", "note": "[Example 260, N-(5-((6-((R)-3-(3,5-difluorophenyl)isoxazolidine-2-yl)pyrimidine-4-yl)amino)-4-methoxy-2-(4-((1S,4S)-5-methyl-2,5-diazabicyclo[2.2.1]heptane-2-yl)piperidine-1-yl)phenyl)acrylamide]", "Ba/F3 (NPH) Activity": "A (GI50 < 50 nM)"},
      {"smiles": "C=CC(=O)Nc1cc(Nc2cc(N3OCC[C@@H]3c3cc(F)cc(Cl)c3)ncn2)c(OC)cc1N1CCC(N2CCN(C3CC3)C[C@H]2C)CC1", "note": "[Example 159, N-(5-((6-((R)-3-(3-chloro-5-fluorophenyl)isoxazolidine-2-yl)pyrimidine-4-yl)amino)-2-(4-((R)-4-cyclopropyl-2-methylpiperazine-1-yl)piperidine-1-yl)-4-methoxyphenyl) acrylamide]", "Ba/F3 (NPH) Activity": "A (GI50 < 50 nM)"},
      {"smiles": "C=CC(=O)Nc1cc(Nc2cc(N3OCC[C@@H]3c3ccc(F)cc3F)ncn2)c(OC)cc1N1CCN(CC)CC1", "note": "[compound 351, N-(5-((6-((R)-3-(2,4-difluorophenyl)isoxazolidine-2-yl)pyrimidine-4-yl)amino)-2-(4-ethylpiperazine-1-yl)-4-methoxyphenyl) acrylamide]", "Ba/F3 (NPH) Activity": "A (GI50 < 50 nM)"},
      {"smiles": "C=CC(=O)Nc1cc(Nc2cc(N3OCC[C@@H]3c3cc(F)cc(Cl)c3F)ncn2)c(OC)cc1N1CCC(N2CCN(C3CC3)CC2)CC1", "note": "[compound 938, N-(5-((6-((R)-3-(3-chloro-2,5-difluorophenyl)isoxazolidine-2-yl)pyrimidine-4-yl)amino)-2-(4-(4-cyclopropylpiperazine-1-yl)piperidine-1-yl)-4-methoxyphenyl) acrylamide]", "Ba/F3 (NPH) Activity": "A (GI50 < 50 nM)"},
      {"smiles": "C#Cc1cccc([C@H]2CCON2c2cc(Nc3cc(NC(=O)C=C)c(N4CCC(N5CCN(C6CCC6)CC5)CC4)cc3OC)ncn2)c1", "note": "[Example 191, N-(2-(4-(4-cyclobutylpiperazine-1-yl)piperidine-1-yl)-5-((6-((R)-3-(3-ethynylphenyl)isoxazolidine-2-yl)pyrimidine-4-yl)amino)-4-methoxyphenyl) acrylamide]", "Ba/F3 (NPH) Activity": "A (GI50 < 50 nM)"},
      {"smiles": "C=CC(=O)Nc1cc(Nc2cc(N3OCC[C@@H]3c3cccc4ccccc34)ncn2)c(OC)cc1N1CCN(CC)CC1", "note": "[compound 444, N-(2-(4-ethylpiperazine-1-yl)-4-methoxy-5-((6-((R)-3-(naphthalene-1-yl)isoxazolidine-2-yl)pyrimidine-4-yl)amino)phenyl)acrylamide]", "Ba/F3 (NPH) Activity": "B (50 nM ≤ GI50 < 500 nM)"},
      {"smiles": "C=CC(=O)Nc1cc(Nc2cc(N3OCC[C@@H]3c3cccc(OC)c3)ncn2)c(OC)cc1N1CCC(N2CCN(C)CC2)CC1", "note": "[Example 40, N-(4-methoxy-5-((6-((R)-3-(3-methoxyphenyl)isoxazolidine-2-yl)pyrimidine-4-yl)amino)-2-(4-(4-methylpiperazine-1-yl)piperidine-1-yl)phenyl) acrylamide]", "Ba/F3 (NPH) Activity": "B (50 nM ≤ GI50 < 500 nM)"},
      {"smiles": "C=CC(=O)Nc1cc(Nc2cc(N3OCC[C@@H]3c3ccc(F)cc3F)ncn2)c(OC)cc1N1CCC(N2CCN(CCN(C)C)CC2)CC1", "note": "[compound 431, N-(5-((6-((R)-3-(2,4-difluorophenyl)isoxazolidine-2-yl)pyrimidine-4-yl)amino)-2-(4-(4-(2-(dimethylamino)ethyl)piperazine-1-yl)piperidine-1-yl)-4-methoxyphenyl) acrylamide]", "Ba/F3 (NPH) Activity": "A (GI50 < 50 nM)"},
      {"smiles": "C=CC(=O)Nc1cc(Nc2cc(N3OCC[C@@H]3Cc3ccccc3)ncn2)c(OC)cc1N1CC2CC1CN2C", "note": "(stereo partly drawn) [compound 969, N-(5-((6-((S)-3-benzylisoxazolidine-2-yl)pyrimidine-4-yl)amino)-4-methoxy-2-(5-methyl-2,5-diazabicyclo[2.2.1]heptane-2-yl)phenyl) acrylamide]", "Ba/F3 (NPH) Activity": "A (GI50 < 50 nM)"},
      {"smiles": "C=CC(=O)Nc1cc(Nc2cc(N3OCC[C@@H]3c3cc(F)ccc3F)ncn2)c(OC)cc1N1CCN(CC)CC1", "note": "[compound 849, N-(5-((6-((R)-3-(2,5-difluorophenyl)isoxazolidine-2-yl)pyrimidine-4-yl)amino)-2-(4-ethylpiperazine-1-yl)-4-methoxyphenyl) acrylamide]", "Ba/F3 (NPH) Activity": "A (GI50 < 50 nM)"}
    ]}
  ]
}
